Laboratory results reported in ChEMBL document CHEMBL4130450, “Mixed Aryl Phosphonate Prodrugs of a Butyrophilin Ligand” (ACS Med Chem Lett, 2017).
Active and inactive are the calls of the source. The calls are words filed in the database; no cut-off is given here.

Legend:
[1] = biological target: T1, Butyrophilin subfamily 3 member A1 (Homo sapiens, UniProt O00481); experiment: Binding affinity to BTN3A1 intracellular domain (unknown origin) at 250 uM by isothermal titration calorimetry
Target sequence in this assay (O00481 30-513 limits assumed): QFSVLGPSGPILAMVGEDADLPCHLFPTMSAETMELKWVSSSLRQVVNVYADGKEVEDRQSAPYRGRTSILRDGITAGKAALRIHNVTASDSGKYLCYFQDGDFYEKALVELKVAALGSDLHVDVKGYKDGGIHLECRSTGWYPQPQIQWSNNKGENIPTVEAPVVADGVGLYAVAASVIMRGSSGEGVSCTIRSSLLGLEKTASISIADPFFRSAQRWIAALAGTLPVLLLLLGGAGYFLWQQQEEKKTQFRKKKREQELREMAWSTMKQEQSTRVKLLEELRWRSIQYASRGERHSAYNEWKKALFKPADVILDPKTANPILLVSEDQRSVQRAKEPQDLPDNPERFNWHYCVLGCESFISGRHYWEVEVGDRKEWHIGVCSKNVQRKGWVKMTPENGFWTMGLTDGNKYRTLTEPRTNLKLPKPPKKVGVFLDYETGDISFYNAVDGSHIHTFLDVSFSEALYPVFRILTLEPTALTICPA

[2] = biological target: T1, Butyrophilin subfamily 3 member A1; experiment: Activation of BTN3A1 in human PBMC-derived Vgamma9Vdelta2 T cells assessed as induction of interferon gamma production in response to K562 cells preincubated for 4 hrs […] followed by 11 days incubation post compound wash out with subsequent coculturing with Vgamma9Vdelta2 T cells for 20 hrs by ELISA; assay type: cell-based
Target sequence in this assay (O00481 whole entry, the tested form may be a part): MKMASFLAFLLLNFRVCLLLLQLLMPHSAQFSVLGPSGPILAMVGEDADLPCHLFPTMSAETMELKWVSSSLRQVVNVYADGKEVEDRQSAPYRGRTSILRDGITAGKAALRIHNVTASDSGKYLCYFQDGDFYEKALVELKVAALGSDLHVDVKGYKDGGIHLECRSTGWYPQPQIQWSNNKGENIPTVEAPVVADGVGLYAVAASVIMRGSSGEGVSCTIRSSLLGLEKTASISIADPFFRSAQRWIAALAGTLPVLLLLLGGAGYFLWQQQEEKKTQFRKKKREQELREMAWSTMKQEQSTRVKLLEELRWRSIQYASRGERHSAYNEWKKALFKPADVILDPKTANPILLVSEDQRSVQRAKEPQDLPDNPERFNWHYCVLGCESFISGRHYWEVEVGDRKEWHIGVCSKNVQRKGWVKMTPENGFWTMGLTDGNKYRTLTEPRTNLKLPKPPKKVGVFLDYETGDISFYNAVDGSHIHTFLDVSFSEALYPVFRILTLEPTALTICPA

[3] = Activation of BTN3A1 in human PBMC-derived Vgamma9Vdelta2 T cells assessed as induction of interleukin 2 stimulated cell proliferation by measuring increase in CD3 positive cells incubated for 3 days followed by 11 days incubation post compound wash out with subsequent stimulation with IL-2 every 3 days measured after 14 days by flow cytometry
[4] = biological target: T1, Butyrophilin subfamily 3 member A1; experiment: Inhibition of HMBPP binding to BTN3A1 intracellular domain (unknown origin) at compound to HMBPP molar ratio of 100 by isothermal titration calorimetry
Target sequence in this assay (O00481 30-513 limits assumed): as the sequence (O00481 30-513 limits assumed) above

SMILES	Activity [1]	EC50 [2] [nM]	also measured
C/C(=C\CCP(=O)(O)Oc1ccccc1)CO	inactive		
C/C(=C\CCP(=O)(COC(=O)C(C)(C)C)Oc1cccc2ccccc12)CO (stereo unspecified)		9	
C/C(=C\CCP(=O)(O)O)CO			EC50 [3]: 4000 nM
C/C(=C\CCP(=O)(COC(=O)C(C)(C)C)OCOC(=O)C(C)(C)C)CO (stereo unspecified)		24	
C/C(=C\CCP(=O)(O)Oc1cccc2ccccc12)CO	inactive		inhibition [4]: inactive
